Values after ≈ are worked out from the molar mass of the structure shown. Residues, ends and D or L forms follow the SMILES beside them.
System: P388
Assay: Growth inhibition of mouse P388 cells
Type: functional
Details: read-out: ED50 (the source's name)

SMILES | EC50 [µg/mL]
CC[C@H](C)[C@@H]1NC(=O)[C@@H]2CCCN2C(=O)[C@H](Cc2ccccc2)NC(=O)[C@@H]2CCCN2C(=O)[C@H](Cc2ccc(O)cc2)NC(=O)[C@@H]2CCCN2C(=O)[C@H]([C@@H](C)CC)NC1=O.Cl [PHAKELLISTATIN 2 (SYNTHETIC)] (cyclo(FPIIPYP)) | 24
CC[C@H](C)[C@@H]1NC(=O)[C@@H]2CCCN2C(=O)[C@H](Cc2ccccc2)NC(=O)[C@@H]2CCCN2C(=O)[C@H](Cc2ccc(O)cc2)NC(=O)[C@@H]2CCCN2C(=O)[C@H]([C@@H](C)CC)NC1=O [PHAKELLISTATIN 2] (cyclo(FPIIPYP)) | 0.34 (≈ 0.411 µM)

— ChEMBL document CHEMBL1157281, “Antineoplastic agents. 400. Synthesis of the Indian Ocean marine sponge cyclic heptapeptide phakellistatin 2” (1999)
